# Measured values published in article PMC10154249, “Unique progerin C-terminal peptide ameliorates Hutchinson–Gilford progeria syndrome phenotype by rescuing BUBR1” (Nature Aging, 2023).
# How the values were obtained:
# [1] = system: BUBR1, HMGA1, KDM1A, ZNF143 and FOXM1 mRNA; test: RT-PCR of BUBR1 and its transcription factors in HGADFN003 cells; format: cell-based, human; settings: for BUBR1 relative (to β-actin) mRNA level (2-ΔΔCt) / FOXM1 relative (to β-actin) mRNA level (2-ΔΔCt) / HMGA1 relative (to β-actin) mRNA level (2-ΔΔCt) / KDM1A relative (to β-actin) mRNA level (2-ΔΔCt) / ZNF143 relative (to β-actin) mRNA level (2-ΔΔCt): Fig. 4a, HGADFN003, vs Mock = 1; for BUBR1 relative (to β-actin) mRNA level (2-ΔΔCt): P=0.0003; for FOXM1 relative (to β-actin) mRNA level (2-ΔΔCt): P=0.2399; for HMGA1 relative (to β-actin) mRNA level (2-ΔΔCt): P=0.9214; for KDM1A relative (to β-actin) mRNA level (2-ΔΔCt): P=0.683; for ZNF143 relative (to β-actin) mRNA level (2-ΔΔCt): P=0.9897
# Method: RNA preparation was performed as described. Total RNA was extracted using Trizol reagent (TaKaRa) following the manufacturer’s instructions. cDNA was generated with M-MLV reverse transcriptase (Promega, catalog no. M170B). Reverse transcription with PCR (RT-PCR) was performed with SYBR Green Real-Time PCR Master Mix (TaKaRa). RT-PCR was carried out on a QuantStudio 3 Real-Time-PCR Instrument (ABI). Data were analyzed and further processed in QuantStuido Design and Analysis Software and GraphPad Prism v.7. Fold change in gene expression over control samples was calculated using the 2^–ΔΔCt method, where β-actin Ct values were used as an internal control. The primer sequences for PCR, synthesized by Comate Bioscience, were as follows:
# β-actin_fwd (5′-[…]-3′) and β-actin_rev (5′-[…]-3′); AURKB_fwd (5′-[…]-3′) and AURKB_rev (5′-[…]-3′); BUB1_ fwd (5′-[…]-3′) and BUB1_rev (5′-[…]-3′); BUB1B_fwd (5′-[…]-3′) and BUB1B_ rev (5′-[…]-3′); CCNA2_fwd (5′-[…]-3′) and CCNA2_ rev (5′-[…]-3′); Mad2l1_fwd (5′-[…]-3′) and Mad2l1_ rev (5′-[…]-3′); TTK1_fwd (5′-[…]-3′) and TTK1_ rev (5′-[…]-3′); PLK1_fwd (5′-[…]-3′) and PLK1_ rev (5′-[…]-3′); PTBP1_fwd (5′-[…]-3′) and PTBP1_ rev (5′-[…]-3′); HMGA1_fwd (5′-[…]-3′) and HMGA1_ rev (5′-[…]-3′); KDM1A1_fwd (5′-[…]-3′) and KDM1A1_ rev (5′-[…]-3′); ZNF143_fwd (5′-[…]-3′) and ZNF143_ rev (5′-[…]-3′); FOXM1_fwd (5′-[…]-3′) and FOXM1_ rev (5′-[…]-3′).
# [2] = system: p53, IL-6 and p21 in HGADFN003 cells; test: Western blot of p53, IL-6 and p21 in HGADFN003 cells; format: cell-based, human
# Method: Western blot was performed as previously described. Cells were lysed in 1× Laemmli sample buffer after washing twice in cold PBS without calcium and magnesium. Protein concentrations were determined using the bicinchoninic acid (BCA) protein assay. Protein lysates were subjected to SDS–PAGE, transferred to 0.45-μm pore size hydrophobic PVDF transfer membrane (Merck Millipore), detected with the appropriate primary antibodies coupled with horseradish peroxidase-conjugated corresponding secondary antibodies, and visualized using enhanced chemiluminescence ECL reagent (GE Healthcare). The Tanon 5500 high-definition low-illumination CCD system (Tanon FLI Capture v.1.02) was used to capture chemiluminescent signals.
# [3] = system: BubR1 in Lmna^G609G/G609G mice; test: IHC of BubR1 in tissues of Lmna^G609G/G609G mice; format: in vivo, mouse; design: key to BubR1 IHC score: intensity score (0-3) × positive-cell score (0-4); range 0-12; settings: 20 mg kg^–1 i.p. every other day
# Method: For UPCP injection, 14-day-old Lmna^G609G/G609G mice were injected intraperitoneally with either PBS or UPCP (20 mg kg^–1, every other day) and wild-type mice were injected with PBS. All phenotypic analyses were performed after 12 weeks of treatment with UPCP. Bodyweight and lifespan were monitored after UPCP treatment. The survival rate was analyzed by the Kaplan–Meier method. We only included mice that were of sufficient bodyweight at the start of the experiment, typically at least 80% of the average littermate weight of the same sex and genotype. All animals meeting criteria for inclusion were then divided randomly into three groups according to genotype (Lmna^+/+, Lmna^G609G/G609G-Mock and Lmna^G609G/G609G-UPCP).
# For histological analyses, mice of the indicated genotypes were perfused with PBS, then with 4% paraformaldehyde (PFA). Whole organs were incubated in 4% PFA at 4 °C for 16 h. All samples were paraffin embedded and sectioning by Servicebio. Subsequently, the tissues were deparaffinized and rehydrated before hematoxylin-eosin (HE) or Masson staining or immunohistochemistry (IHC). HE staining was performed using an HE Kit (Absin, catalog no. abs9217), and Masson staining was performed using Masson’s Trichrome Stain Kit (Absin, catalog no. abs9347) according to the manufacturer’s instructions. The thickness of the layers or the areas of fibrosis in the tissues were calculated using ImageJ software by a blinded investigator. For IHC, the sections were completed by the Servicebio. The images were acquired by a microscope (Leica DMi8) and analyzed with Leica Application Suite X v.3.6.0.24 (Leica). For BubR1, cytoplasmic staining in cells was scored on the intensity of staining and the proportion of positive cells by a blinded investigator. The intensity of the staining was graded as 0 (negative, no color), 1 (low positive, light yellow), 2 (positive, brown yellow) or 3 (high positive, brown), and the number of positive cells was graded as 0 (<5%), 1 (5–25%), 2 (25–50%), 3 (51–75%) or 4 (>75%). The final score was defined as staining number score multiplied by staining color score. For lamin B1, p21 or IL-6, the proportion of positive cells was used to quantify the expression of protein in tissues by a blinded investigator.
substance,measurement,setting,value
"H-YGRKKRRQRRRYNLRSRTVLCGTCGQPADKASASGSGAQSPQNCSIM-OH (cysteines drawn unpaired) [UPCP, unique progerin C-terminal peptide]",BUBR1 relative (to β-actin) mRNA level (2-ΔΔCt),[1]; replicate 1,5.569
same,BUBR1 relative (to β-actin) mRNA level (2-ΔΔCt),[1]; replicate 2,6.327
same,BUBR1 relative (to β-actin) mRNA level (2-ΔΔCt),[1]; replicate 3,4.947
same,FOXM1 relative (to β-actin) mRNA level (2-ΔΔCt),[1]; replicate 1,1.5201
same,FOXM1 relative (to β-actin) mRNA level (2-ΔΔCt),[1]; replicate 2,2.139
same,FOXM1 relative (to β-actin) mRNA level (2-ΔΔCt),[1]; replicate 3,0.8641
same,HMGA1 relative (to β-actin) mRNA level (2-ΔΔCt),[1]; replicate 1,0.9058
same,HMGA1 relative (to β-actin) mRNA level (2-ΔΔCt),[1]; replicate 2,1.8337
same,HMGA1 relative (to β-actin) mRNA level (2-ΔΔCt),[1]; replicate 3,0.3934
same,KDM1A relative (to β-actin) mRNA level (2-ΔΔCt),[1]; replicate 1,0.9262
same,KDM1A relative (to β-actin) mRNA level (2-ΔΔCt),[1]; replicate 2,0.9644
same,KDM1A relative (to β-actin) mRNA level (2-ΔΔCt),[1]; replicate 3,1.24
same,ZNF143 relative (to β-actin) mRNA level (2-ΔΔCt),[1]; replicate 1,0.3607
same,ZNF143 relative (to β-actin) mRNA level (2-ΔΔCt),[1]; replicate 2,1.774
same,ZNF143 relative (to β-actin) mRNA level (2-ΔΔCt),[1]; replicate 3,0.8819
same,BUBR1 mRNA expression,"[1]; RT-PCR, HGADFN003 cells",could upregulate expression of BUBR1
same,expression of transcription factors regulating BUBR1,"[1]; RT-PCR, HGADFN003 cells",had little effect on their expression
same,"level of p53, IL-6 and p21",[2],"decreased level of p53, IL-6 and p21"
same,BubR1 IHC score,"[3]; aorta, No. 1",7
same,BubR1 IHC score,"[3]; aorta, No. 2",8.4
same,BubR1 IHC score,"[3]; aorta, No. 3",12
same,BubR1 IHC score,"[3]; aorta, No. 4",8.6
same,BubR1 IHC score,"[3]; aorta, No. 5",8
same,BubR1 IHC score,"[3]; aorta, No. 6",6
same,BubR1 IHC score,"[3]; lung, No. 1",1
same,BubR1 IHC score,"[3]; lung, No. 2",2
same,BubR1 IHC score,"[3]; lung, No. 3",2.4
same,BubR1 IHC score,"[3]; lung, No. 4",1.2
same,BubR1 IHC score,"[3]; lung, No. 5",1.4
same,BubR1 IHC score,"[3]; lung, No. 6",1.2
same,BubR1 IHC score,"[3]; skin, No. 1",10.4
same,BubR1 IHC score,"[3]; skin, No. 2",8
same,BubR1 IHC score,"[3]; skin, No. 3",5.6
same,BubR1 IHC score,"[3]; skin, No. 4",7.2
same,BubR1 IHC score,"[3]; skin, No. 5",12
same,BubR1 IHC score,"[3]; skin, No. 6",12
same,BubR1 expression,"[3]; skin, esophagus, lung and spleen",increased the expression of BubR1
same,BubR1 IHC score,"[3]; spleen, No. 1",7.6
same,BubR1 IHC score,"[3]; spleen, No. 2",6.8
same,BubR1 IHC score,"[3]; spleen, No. 3",6
same,BubR1 IHC score,"[3]; spleen, No. 4",7.8
same,BubR1 IHC score,"[3]; spleen, No. 5",7.6
same,BubR1 IHC score,"[3]; spleen, No. 6",7.2
